Experimental data as given in US10010525B2, “Methods of inducing anesthesia” (The Regents of the University of California, priority 2012, dated 2018).
Read-outs that look alike come from different tables or passages of the source.

Experiments:
GABAA receptor = conditions: 365 μM ketamine; cited from earlier work
[1] = aqueous phase; Human; cited from earlier work
[2] = tested on: 3-transmembrane (TM3) and 4-transmembrane (TM4) receptors; conditions: grouped by calculated molar solubility in unbuffered water at 25° C.; cited from earlier work
[3] = biological target: T1, GABAA (α1β2γ2s) receptors (UniProt P14867+P18508+P63138); experiment: GABAA receptor two-electrode voltage clamp in oocytes at saturated drug concentration; assay type: cell-based, human α1, rat β2 and γ2s; conditions: saturating aqueous concentration
T1 construct: expressed in transfected cells; host or cells: Xenopus laevis oocytes (intranuclear plasmid injection, α1:β2:γ2 = 1:1:10)
T1 sequence (P14867 28-456): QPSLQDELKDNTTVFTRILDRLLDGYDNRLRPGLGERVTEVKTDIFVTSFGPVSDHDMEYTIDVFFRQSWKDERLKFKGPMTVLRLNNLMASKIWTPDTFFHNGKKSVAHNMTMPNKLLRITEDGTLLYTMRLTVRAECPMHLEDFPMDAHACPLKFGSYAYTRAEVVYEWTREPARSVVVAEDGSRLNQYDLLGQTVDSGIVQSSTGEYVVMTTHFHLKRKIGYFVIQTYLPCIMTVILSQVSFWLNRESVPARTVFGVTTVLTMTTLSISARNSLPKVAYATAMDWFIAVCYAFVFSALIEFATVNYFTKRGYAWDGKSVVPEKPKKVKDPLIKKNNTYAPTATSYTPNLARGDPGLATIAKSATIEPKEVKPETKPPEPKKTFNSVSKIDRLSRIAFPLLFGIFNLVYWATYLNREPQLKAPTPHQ
T1 sequence (P63138 25-474 limits assumed): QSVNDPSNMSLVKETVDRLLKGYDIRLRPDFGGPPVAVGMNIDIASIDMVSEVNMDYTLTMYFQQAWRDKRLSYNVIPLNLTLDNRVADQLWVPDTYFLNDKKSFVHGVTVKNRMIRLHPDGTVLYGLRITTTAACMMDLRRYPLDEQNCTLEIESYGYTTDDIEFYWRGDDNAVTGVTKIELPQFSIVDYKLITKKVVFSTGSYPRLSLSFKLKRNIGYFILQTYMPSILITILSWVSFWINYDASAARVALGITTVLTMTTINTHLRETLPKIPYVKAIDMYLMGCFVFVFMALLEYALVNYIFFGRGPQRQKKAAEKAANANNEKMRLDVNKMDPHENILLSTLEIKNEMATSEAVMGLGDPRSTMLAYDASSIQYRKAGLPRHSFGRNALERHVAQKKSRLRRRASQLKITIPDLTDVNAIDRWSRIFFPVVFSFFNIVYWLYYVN
T1 sequence (P18508 39-466): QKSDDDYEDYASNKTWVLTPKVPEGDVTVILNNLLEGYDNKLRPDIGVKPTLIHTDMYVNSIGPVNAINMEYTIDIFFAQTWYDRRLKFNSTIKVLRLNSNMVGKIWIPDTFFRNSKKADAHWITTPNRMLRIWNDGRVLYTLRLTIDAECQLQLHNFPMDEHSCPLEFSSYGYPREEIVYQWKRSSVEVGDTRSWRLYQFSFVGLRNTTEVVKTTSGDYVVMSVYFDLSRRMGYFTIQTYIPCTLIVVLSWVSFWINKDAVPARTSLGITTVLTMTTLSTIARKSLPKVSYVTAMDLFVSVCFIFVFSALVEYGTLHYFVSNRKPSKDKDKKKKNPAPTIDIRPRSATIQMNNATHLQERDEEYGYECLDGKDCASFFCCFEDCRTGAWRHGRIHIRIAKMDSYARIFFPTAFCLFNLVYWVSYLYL

[4] = Loss of righting reflex in mice (inhaled agent); assay type: in vivo
Procedure: (§1) HFCP caused loss of righting reflex (a surrogate measure of unconsciousness) in 4 healthy ND4 mice at 1.0±0.2 (mean±SD) percent of 1 atmosphere. […] After 2 hours of anesthesia, mice were awake after about 1 minute of discontinuing HFCP administration. […] Despite a lack of NMDA receptor effects, 1,1,2,2,3,3,4-heptafluorocyclopentane is able to produce the desired pharmacologic endpoints of unconsciousness and immobility that appears similar to desirable effects produced by conventional agents.

glycine receptors = experiment: Glycine receptor modulation in vitro; assay type: cell-based
[5] = tested on: inhibitory potassium channels; experiment: Inhibitory potassium channel modulation in vitro; assay type: cell-based; conditions: some inhibitory potassium channels
Stability in soda lime = assay type: physicochemical
From the text: Divalent bases (and sometimes monovalent bases) are used for CO2 absorption in anesthetic circuits; clinically-useful agents must therefore be stable in the presence of strong bases. […] Anesthetics should also be resistant to hydrolysis and redox reactions in vivo. Compounds with ester linkages can be thermally unstable or hydrolysed by plasma and tissue cholinesterases; and those compounds resistant to hydrolysis may likely cause undesirable inhibition of these enzymes (which are essential for metabolism of other drugs). Therefore, compounds with ester linkages are not preferred. Anesthetics with non-aromatic unsaturated carbon linkages have been used historically (fluroxene, isopropenyl vinyl ether, trichloroethylene, vinethylene, ethylene) and shown to undergo extensive metabolism that for some agents was associated with toxicity. Agents containing double or triple carbon bonds are not preferred.

[6] = biological target: T2, NMDA (NR1/NR2A) receptors (Rattus norvegicus, UniProt P35439+Q00959); experiment: NMDA receptor two-electrode voltage clamp in oocytes at saturated drug concentration; assay type: cell-based; conditions: saturating aqueous concentration
T2 construct: expressed in transfected cells; host or cells: Xenopus laevis oocytes (RNA injection, 1:1)
T2 sequence (Q00959 23-1464, other chains not shown): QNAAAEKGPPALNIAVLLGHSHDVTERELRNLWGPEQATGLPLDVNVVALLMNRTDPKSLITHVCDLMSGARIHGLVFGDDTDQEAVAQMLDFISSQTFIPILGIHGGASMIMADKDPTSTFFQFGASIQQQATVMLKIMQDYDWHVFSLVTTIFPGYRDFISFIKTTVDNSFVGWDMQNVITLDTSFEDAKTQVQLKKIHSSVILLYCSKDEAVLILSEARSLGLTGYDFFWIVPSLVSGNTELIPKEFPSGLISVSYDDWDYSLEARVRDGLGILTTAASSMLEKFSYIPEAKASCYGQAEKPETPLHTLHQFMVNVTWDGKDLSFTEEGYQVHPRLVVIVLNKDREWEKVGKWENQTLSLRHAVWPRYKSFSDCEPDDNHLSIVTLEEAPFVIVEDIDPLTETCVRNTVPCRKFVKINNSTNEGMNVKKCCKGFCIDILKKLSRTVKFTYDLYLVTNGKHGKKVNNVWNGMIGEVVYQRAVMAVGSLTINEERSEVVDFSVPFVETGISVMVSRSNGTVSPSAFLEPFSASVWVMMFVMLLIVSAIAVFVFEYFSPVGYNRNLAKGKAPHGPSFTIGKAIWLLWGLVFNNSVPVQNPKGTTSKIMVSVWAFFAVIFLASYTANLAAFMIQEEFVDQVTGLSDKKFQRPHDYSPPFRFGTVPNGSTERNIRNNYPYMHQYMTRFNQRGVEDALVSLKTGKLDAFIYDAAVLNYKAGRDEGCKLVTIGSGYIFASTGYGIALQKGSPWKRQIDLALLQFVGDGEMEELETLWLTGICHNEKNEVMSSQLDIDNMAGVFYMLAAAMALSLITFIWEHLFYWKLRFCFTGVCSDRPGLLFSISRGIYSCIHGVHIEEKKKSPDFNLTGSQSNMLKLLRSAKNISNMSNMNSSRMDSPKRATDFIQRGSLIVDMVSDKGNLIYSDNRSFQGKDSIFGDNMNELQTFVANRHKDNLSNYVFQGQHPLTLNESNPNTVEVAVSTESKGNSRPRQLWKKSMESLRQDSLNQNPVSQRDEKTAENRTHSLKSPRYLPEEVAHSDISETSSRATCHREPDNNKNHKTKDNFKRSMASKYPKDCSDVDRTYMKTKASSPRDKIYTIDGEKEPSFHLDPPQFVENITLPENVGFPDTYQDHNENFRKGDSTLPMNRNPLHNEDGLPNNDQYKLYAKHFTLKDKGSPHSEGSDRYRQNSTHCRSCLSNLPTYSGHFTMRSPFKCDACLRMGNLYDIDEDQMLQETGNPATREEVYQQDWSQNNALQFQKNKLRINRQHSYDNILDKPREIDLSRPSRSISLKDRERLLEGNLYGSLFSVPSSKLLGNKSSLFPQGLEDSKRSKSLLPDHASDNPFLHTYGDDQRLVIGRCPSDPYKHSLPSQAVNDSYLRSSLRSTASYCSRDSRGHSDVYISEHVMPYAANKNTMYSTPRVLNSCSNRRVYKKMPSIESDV

[7] = Histopathology of heart, lung, kidney and liver tissues after anesthesia; assay type: in vivo, ND4 mice; conditions: collected 2 days later
Procedure: as §1

[8] = Loss of righting reflex in Sprague-Dawley rats (inhaled agent); assay type: in vivo
Procedure: 1,1,2,2,3,3,4,5-octafluorocyclopentane (CAS#828-35-3) caused a loss of righting reflex in 4 healthy Sprague-Dawley rats at a concentration of 3.3±0.4 (mean±SD) percent of 1 atmosphere. […] After discontinuing the agent, rats were awake and ambulatory in less than 1 minute. […] Despite a lack of NMDA receptor effects, 1,1,2,2,3,3,4,5-octafluorocyclopentane is able to produce the desired pharmacologic endpoints of unconsciousness and immobility that appears similar to desirable effects produced by conventional agents.

oocyte = experiment: Cytotoxicity during oocyte electrophysiology studies; assay type: cell-based, Xenopus laevis
From the text: These compounds are not preferred. Other structures previously known to be highly toxic to animals or humans (such as silanes and boranes) are not preferred.

NMDA receptor = conditions: read-out: IC50, inhibition of NMDA receptor currents; cited from earlier work
[9] = read-out: Aqueous EC50; aqueous phase; Rat; cited from earlier work

Row | SMILES | EC50 [1] [µM] | ion channel modulation, TM3 versus TM4 receptors (FIG. 2) [2] | GABAA receptor modulation (in words) [3] | glycine receptor modulation (in words) (glycine receptors) | inhibitory potassium channel modulation (in words) [5] | NMDA receptor modulation (in words) [6] | also measured
1 | CNC1(c2ccccc2Cl)CCCCC1=O (stereo not drawn) [Ketamine] | 2 | modulate both 3-transmembrane (TM3) and TM4 receptors |  |  |  |  | increase of GABAA receptor currents (GABAA receptor): 56%
2 | FC1CC(F)(F)C(F)(F)C1(F)F (stereo not drawn) [HFCP, 1,1,2,2,3,3,4-heptafluorocyclopentane] |  |  | potentiates | potentiates | potentiates | no effect | concentration causing loss of righting reflex ([4]; 4 healthy ND4 mice, mean±SD, inhaled): 1.0±0.2% of 1 atmosphere; excitement or coughing during anesthetic induction ([4]; mice): no excitement or coughing; time to awake after discontinuing administration ([4]; mice, after 2 hours of anesthesia): about 1 minute; stability in soda lime (Stability in soda lime): stable in soda lime; histopathology of heart, lung, kidney and liver tissues [7]: no evidence of inflammation or toxicity
3 | FC1C(F)C(F)(F)C(F)(F)C1(F)F (stereo not drawn) [1,1,2,2,3,3,4,5-octafluorocyclopentane] |  |  | potentiates | potentiates | potentiates | no effect | concentration causing loss of righting reflex ([8]; 4 healthy Sprague-Dawley rats, mean±SD, inhaled): 3.3±0.4% of 1 atmosphere; excitement or coughing during anesthetic induction ([8]; rats): without excitement or coughing; time to awake and ambulatory after discontinuing the agent ([8]; rats): less than 1 minute
4 | C1CCNC1 [pyrrolidine] |  |  |  |  |  |  | cytotoxicity during oocyte electrophysiology studies (oocyte): cytotoxicity
5 | CC(C)c1cccc(C(C)C)c1O [Propofol] |  | modulate both 3-transmembrane (TM3) and TM4 receptors |  |  |  |  | IC50 (NMDA receptor): 160 µM; EC50 [9]: 2000 nM
6 | CCCC(C)C1(CC)C(=O)NC(=S)NC1=O (stereo not drawn) [Thiopental] | 25 |  |  |  |  |  | 
